What was measured:
[1] = system: P. acnes ATCC 6919 linoleate isomerase; test: Effect of cofactors, metals, chelators and sulfhydryl reagents on isomerase activity of crude soluble enzyme preparation; type: biochemical, Propionibacterium acnes; conditions: for effect of possible cofactor on isomerase activity: 60 minute assays
Procedure: A number of possible cofactors were tested for their effect on isomerase activity, including NAD, NADH, NADP, NADPH, FAD, FMN, ADP, ATP and glutathione.
(§1) Generally, the isomerase was assayed using an endpoint assay after 30 to 60 minutes incubation at room temperature. FIG. 18 (time course assay at different linoleic acid levels) and FIG. 19 (end point assay at different linoleic acid levels) show the effect of increasing substrate concentration on formation of […].

[2] = system: Lactobacillus reuteri PYR8 9,11 linoleate isomerase (whole cells); test: Whole-cell biotransformation of linoleic acid, effect of product and substrate on isomerase; type: cell-based; conditions: 700 ppm CLA from recycled reaction broth, 1000 ppm linoleic acid
Source text: The following example describes the determination of conditions to improve enzyme stability and performance and on testing the limitations of the biotransformation process. Whole cells of L. reuteri PYR8 were used in all biotransformation experiments described below.
The effect of substrate and product on the enzyme performance was also investigated, as well as the possibility of recycling the cells. The effect of CLA on the reaction was studied by adding different concentrations of either a mixture of isomers (Sigma material, approximately 41% 9,11 isomer and 48% 10,12 CLA), or just 9,11 CLA (Matreya material, approximately 77% 9,11 CLA). Concentrations from 500 to 3000 ppm were tested. Some experiments were also performed recycling the broth from a previous biotransformation reaction with L. reuteri PYR8, resulting in an initial CLA concentration around 700 ppm. In every case, 1000 ppm linoleic acid were added. […] In the same period, almost complete conversion of the linoleic acid was obtained in the control without exogenous CLA. However, the effect was not detected when the CLA present came from recycled reaction broth. […] The results may indicate that some of the impurities present in the chemically produced CLA may be stronger inhibitors of the 9,11 isomerase than the product itself. […]

[3] = system: C. sporogenes ATCC 25762 linoleate isomerase; test: Effect of additives, buffer components and detergents on C. sporogenes isomerase activity; type: biochemical, Clostridium sporogenes
Procedure: It has been reported that solubilization in the presence of lysophosphatidylcholine (LPC) allows higher detergent concentrations to be used, thus allowing more complete membrane protein solubilization. CaCl2 can activate enzymes, such as some nucleases.
A third nonionic detergent, octyl glucoside (OG) was tested for its ability to solubilize the C. sporogenes linoleate isomerase.

L. reuteri PYR8 = test: Whole cell biotransformation of linoleic acid to CLA; type: cell-based, Lactobacillus reuteri; conditions: for (cis,trans)-9,11-CLA formation on addition of nonionic detergent: detergents added to 0.1-0.5% final concentration
Procedure: Cultures were grown and harvested as described above. Washed cells were resuspended in either fresh growth medium or 0.1 M Tris pH 8.0 buffer containing linoleic acid at various concentrations.
Samples were taken at appropriate intervals and analyzed for CLA as described in Example 2. In some experiments, various detergents were added to 0.1-0.5% final concentration. […] About 5 mL solvent was added to about 20 mL aqueous cell suspension in a 125 mL baffled shake flask incubated at room temperature.
Linoleic acid was added as 99% LA, dissolved in propyleneglycol (100 mg/ml solution) or emulsified with 0.5, 5 or 30% lecithin. The emulsion was prepared by blending the linoleic acid and the lecithin with the reaction medium before the addition of the cells. Linoleic acid was added at 1000 and 2000 ppm.
In the second experiment, cell recycle was studied with cells that have performed the biotransformation at different levels of linoleic acid. Cells were harvested, resuspended in breakage buffer at a 10-fold concentration, and linoleic acid was added at 1000, 1500, 2000, 2500 and 3000 ppm level. Given the higher linoleic acid concentration, the reaction was allowed to proceed for six hours. […] 1000 ppm linoleic acid were added and the reaction was followed for four hours.

9,11 linoleate isomerase = test: Test of possible inducers of the 9,11 linoleate isomerase in the growth medium; type: cell-based, Lactobacillus reuteri; conditions: 100 mg/l in the growth medium
Procedure: Several substances were tested as possible inducers of the 9,11 linoleate isomerase. The materials tested included: lauric acid, myristic acid, palmitic acid, palmitoleic acid, oleic acid, linoleic acid, linolenic acid, oleic acid stearyl ester, linoleyl alcohol, linoleic acid methyl ester, linoleic acid ethyl ester, stearic acid and linoleic acid methyl ester. They were added to the growth medium at a 100 mg/l level.

[4] = system: Clostridium sporogenes ATCC 25762 linoleate isomerase; test: Linoleate isomerase activity versus linoleic acid concentration; type: biochemical; conditions: tested from 0 to 100 ppm, FIG. 26
Procedure: (§2) About 50 to about 250 μL of enzyme sample was added to 1.5 mL of enzyme assay buffer for reaction. About 1 to about 2 mL of aqueous phase was separated from the enzyme reaction and was extracted with about 3 mL of hexane. […] Depending on the level of activity, assay mixtures of chromatography fractions were incubated at room temperature from about 1 to about 24 hours before extraction with hexane.
Temperature optimization with crude extracts was carried out at 4° C., room temperature (˜25° C.) and 37° C. The best temperature for the isomerase activity was room temperature (FIG. 25). The isomerase activity decreased to 73% of optimum at 4° C. and 63% of optimum at 37° C.
The concentration of linoleic acid was tested from 0 to 100 ppm (FIG. 26). The optimum concentration for linoleic add was determined to be 40 ppm.

[5] = biological target: T1, Propionibacterium acnes ATCC 6919 linoleate isomerase (10,12-linoleate isomerase) (Cutibacterium acnes, UniProt Q6A8X5); test: Linoleate isomerase activity in crude soluble extract, effect of cofactors, chelators, sulfhydryl reagents and substrate level; type: biochemical; conditions: increasing linoleic acid levels, FIGS. 18 and 19
T1 construct: gene not cloned in this document
Procedure: as §2
Enzyme extracts were prepared by French Press and the extract fractionated as outlined in FIG. 15. Taking the total isomerase activity in fraction A as 100%, over 93% of the activity was detected in the soluble protein fraction (B) Less than 1% of the isomerase activity was found in the washed pellet, or membrane fraction (C). Approximately 2% of the activity was located in the buffer fraction (D), after the pellet washing and centrifugation steps. Thus, the P. acnes isomerase clearly is not a membrane protein, unlike the isomerase activities in L. reuteri PYR8 and other strains examined to date.
Calcium and magnesium also had no effect.
as §1

linoleate isomerase = type: biochemical; conditions: pH optimum of about 7.5
[6] = system: isolated linoleate isomerase (source organism not stated with the values); test: Michaelis-Menten kinetics of isolated linoleate isomerase (linoleic acid substrate, oleic acid inhibition)

T1 sequence (Q6A8X5 entry or part of it): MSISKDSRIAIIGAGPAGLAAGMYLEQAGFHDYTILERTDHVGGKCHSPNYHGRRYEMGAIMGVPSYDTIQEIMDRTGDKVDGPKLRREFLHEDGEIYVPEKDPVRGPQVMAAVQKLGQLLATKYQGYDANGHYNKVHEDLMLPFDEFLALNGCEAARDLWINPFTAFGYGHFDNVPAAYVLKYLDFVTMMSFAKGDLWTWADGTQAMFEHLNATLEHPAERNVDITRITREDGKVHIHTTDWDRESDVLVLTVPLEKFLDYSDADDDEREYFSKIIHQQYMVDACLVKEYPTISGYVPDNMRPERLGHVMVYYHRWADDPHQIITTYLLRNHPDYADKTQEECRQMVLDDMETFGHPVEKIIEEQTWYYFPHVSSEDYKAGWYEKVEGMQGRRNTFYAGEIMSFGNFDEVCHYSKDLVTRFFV

Which “inhibition of isomerase activity” value ([1]; 1 mM) does the source give for `c1cnc2c(c1)ccc1cccnc12` [1,10-phenanthroline] here?
Its value is “not inhibited”.

Which “effect of possible cofactor on isomerase activity” value (“effect of possible cofactor” for short) [1] does the source give for `Nc1ncnc2c1ncn2[C@@H]1O[C@H](COP(=O)(O)OP(=O)(O)O)[C@@H](O)[C@H]1O` [ADP] here?
The value was “No significant effect”.

How did the “effect of CLA from recycled reaction broth on conversion rate” value [2] turn out when `CCCCCC/C=C/C=C\CCCCCCCC(=O)O` [CLA] was run?
The value was “no difference in conversion rate”.

For `[Ca+2].[Cl-].[Cl-]` [CaCl2], which “effect on enzyme activity” value ([3]; Tris and phosphate buffer systems) is on record?
The value was “decreased the enzyme activity”.

What about the “effect on enzyme activity” value ([3]; temperatures higher than 37° C.) of the same compound?
Its value is “no effect on the activity”.

`[Ca]` [Calcium] was tested. Which “effect of metal on isomerase activity” value [1] did it give?
Its value is “no effect”.

`Cc1cc2nc3c(=O)[nH]c(=O)nc-3n(C[C@H](O)[C@H](O)[C@H](O)COP(=O)(O)OP(=O)(O)OC[C@H]3O[C@@H](n4cnc5c(N)ncnc54)[C@H](O)[C@@H]3O)c2cc1C` [FAD] was tested. Which “effect of possible cofactor” value [1] did it give?
Its value is “No significant effect”.

`Cc1cc2nc3c(=O)[nH]c(=O)nc-3n(C[C@H](O)[C@H](O)[C@H](O)COP(=O)(O)O)c2cc1C` [FMN] was tested. Which “effect of possible cofactor” value [1] did it give?
Its value is “No significant effect”.

Which “inhibition of isomerase activity” value ([1]; 100 μM) does the source give for `CCN1C(=O)C=CC1=O` [N-ethylmaleimide] here?
Its value is “not inhibited”.

With `NC(=O)C1=CN([C@@H]2O[C@H](COP(=O)(O)OP(=O)(O)OC[C@H]3O[C@@H](n4cnc5c(N)ncnc54)[C@H](O)[C@@H]3O)[C@@H](O)[C@H]2O)C=CC1` [NADH] as the compound, how does the “effect of possible cofactor” value [1] read?
Its value is “No significant effect”.

`NC(=O)C1=CN([C@@H]2O[C@H](COP(=O)(O)OP(=O)(O)OC[C@H]3O[C@@H](n4cnc5c(N)ncnc54)[C@H](OP(=O)(O)O)[C@@H]3O)[C@@H](O)[C@H]2O)C=CC1` [NADPH] was tested. Which “effect of possible cofactor” value [1] did it give?
Its value is “No significant effect”.

With `NC(=O)c1ccc[n+]([C@@H]2O[C@H](COP(=O)([O-])OP(=O)(O)OC[C@H]3O[C@@H](n4cnc5c(N)ncnc54)[C@H](OP(=O)(O)O)[C@@H]3O)[C@@H](O)[C@H]2O)c1` [NADP] as the compound, how does the “effect of possible cofactor” value [1] read?
The value was “No significant effect”.

Which “effect of possible cofactor” value [1] does the source give for `NC(=O)c1ccc[n+]([C@@H]2O[C@H](COP(=O)([O-])OP(=O)(O)OC[C@H]3O[C@@H](n4cnc5c(N)ncnc54)[C@H](O)[C@@H]3O)[C@@H](O)[C@H]2O)c1` [NAD] here?
The value was “No significant effect”.

How did the “isomerase specific activity higher than that of OTGP solubilized isomerase” value ([3]; 1.5% (2×critical micelle concentration)) turn out when `CCCCCCCCO[C@@H]1O[C@H](CO)[C@@H](O)[C@H](O)[C@H]1O` [OG, octyl glucoside] was run?
The value was “about 20%”.

For `CCCCCCCC/C=C\CCCCCCCC(=O)OCCOCC(OCCO)C1OCC(OCCO)C1OCCO` (stereo not shown) [Tween-80], which “(cis,trans)-9,11-CLA formation on addition of nonionic detergent” value (L. reuteri PYR8) is on record?
Its value is “does not significantly increase”.

How did the “effect of possible cofactor” value [1] turn out when `N[C@@H](CCC(=O)N[C@@H](CS)C(=O)NCC(=O)O)C(=O)O` [glutathione] was run?
The value was “No significant effect”.

Which “increase in activity on increasing the concentration” value ([3]; extraction buffer) does the source give for `OCC(O)CO` [glycerol] here?
Its value is 30%.

With `CCCCCCCCCCCC(=O)O` [lauric acid] as the compound, how does the “effect as inducer on expression and/or activity of the isomerase” value (“effect as inducer” for short) (9,11 linoleate isomerase) read?
The value was “No positive effect”.

`CCCCC/C=C\C/C=C\CCCCCCCC(=O)OCC` [linoleic acid ethyl ester] was tested. Which “effect as inducer” value (9,11 linoleate isomerase) did it give?
Its value is “No positive effect”.

Which “effect as inducer” value (9,11 linoleate isomerase) does the source give for `CCCCC/C=C\C/C=C\CCCCCCCC(=O)OC` [linoleic acid methyl ester] here?
Its value is “No positive effect”.

With `CCCCC/C=C\C/C=C\CCCCCCCC(=O)O` [linoleic acid, (cis,cis)-9,12-linoleic acid] as the compound, how does the substrate inhibition (L. reuteri PYR8; up to 3000 ppm linoleic acid, cells 10-fold concentrated in breakage buffer) read?
Its substrate inhibition is “no substrate inhibition was detected”.

And the “optimum concentration for linoleic acid” value [4]?
Its value is 40 ppm.

And the “substrate inhibition by linoleic acid” value [5]?
The value was “not subject to the same type of substrate inhibition”.

And the Km (linoleate isomerase; read-out: Km for linoleic acid)?
Its Km is roughly 8.1 µM.

What about the “linoleic acid concentration at which initial velocity decreases” value [6] of the same compound?
The value was “about 60 μM”.

And the “effect as inducer” value (9,11 linoleate isomerase)?
Its value is “No positive effect”.

How did the “effect as inducer” value (9,11 linoleate isomerase) turn out when `CCCCC/C=C\C/C=C\CCCCCCCCO` [linoleyl alcohol] was run?
Its value is “No positive effect”.

`[Mg]` [magnesium] was tested. Which “effect of metal on isomerase activity” value [1] did it give?
Its value is “no effect”.

For `CCCCCCCCCCCCCC(=O)O` [myristic acid], which “effect as inducer” value (9,11 linoleate isomerase) is on record?
The value was “No positive effect”.

With `CCCCCCCC/C=C\CCCCCCCC(=O)OCCCCCCCCCCCCCCCCCC` [oleic acid stearyl ester] as the compound, how does the “effect as inducer” value (9,11 linoleate isomerase) read?
Its value is “No positive effect”.

Which Ki (linoleate isomerase; read-out: Ki for oleic acid) does the source give for `CCCCCCCC/C=C\CCCCCCCC(=O)O` [oleic acid] here?
The Ki was roughly 80 µM.

What about the “effect as inducer” value (9,11 linoleate isomerase) of the same compound?
Its value is “No positive effect”.

With `O=C(O)c1cc[c]([Hg][Cl])cc1` [p-chloromercuribenzoate] as the compound, how does the “inhibition of isomerase activity” value ([1]; 5 μM) read?
The value was “not inhibited”.

`CCCCCCCCCCCCCCCC(=O)O` [palmitic acid] was tested. Which “effect as inducer” value (9,11 linoleate isomerase) did it give?
The value was “No positive effect”.

How did the “effect as inducer” value (9,11 linoleate isomerase) turn out when `CCCCCC/C=C\CCCCCCCC(=O)O` [palmitoleic acid] was run?
The value was “No positive effect”.

For `CCCCCCCCCCCCCCCCCC(=O)O` [stearic acid], which “effect as inducer” value (9,11 linoleate isomerase) is on record?
Its value is “No positive effect”.

Triton X-100 was tested. Which “(cis,trans)-9,11-CLA formation on addition of nonionic detergent” value (L. reuteri PYR8) did it give?
Its value is “does not significantly increase”.

Source: US6743609B1, “Linoleate isomerase” (Arkion Life Sciences LLC, priority 1997, dated 2004)
